One experiment deals with 30S ribosomal subunit. Particulars: cited from earlier work; for reduction of the rate of 30S formation compared with control cells: 3 μg/mL.
A further experiment has as its system cells. The following applies: cited from earlier work.
For a further experiment, the system named is HD487B cells. As to the kind of experiment: Puromycin selection of HD487B cells, insulin mRNA by quantitative RT-PCR. It is filed as cell-based, human. The method, then:
In an attempt to see if other protein synthesis inhibitors have similar effect as hygromycin B on cultured pancreatic cells puromycin was used in a pilot experiment. We treated P0 cells from HD487B with puromycin at either 2.5 or 5 μg/mL concentrations in SM95/M7 (4:1) for overnight. The cells were recovered in the same medium without puromycin till reaching confluence and passaged to P1. P1 and P2 cells were cultured in SM95/M7 (9:1) with Wnt3a (20 ng/mL). P3 and P4 cells were cultured in SM95/M7 (4:1) with bFGF (50 ng/mL). P5 cells were cultured in maturation medium. We took portions of cells at each passages and analyzed insulin gene expression by quantitative RT-PCR and normalized to β-actin expression. Cells that survived puromycin treatment also expressed insulin at passages 1, 2, 3, 4, and 5.

Another experiment relates to RbbA. Particulars: control antibiotic; cited from earlier work.
Experiment [1] concerns 70S ribosome-associated ATPase activity. The following applies: cited from earlier work.

Consider 4 compounds from patent US20070015279A1, “Methods of Selecting Pancreatic Endocrine Cells Using Protein Synthesis Inhibitors” (AmCyte Inc., priority 2005, published 2007).

Converted amounts (≈) assume the structure as drawn.

Turning to neomycin, in the experiment with 30S ribosomal subunit, the “reduction of the rate of 30S formation compared with control cells” value is given as “about 80%” and the “IC50 for 30S particle formation” value is on record as “equal to the IC50 for inhibition of translation”. The “IC50, viable cell number” value in the experiment with cells was 2 µg/mL.
Regarding `NC[C@@H]1O[C@H](O[C@H]2[C@@H](O)[C@H](O[C@@H]3[C@@H](O)[C@H](N)C[C@H](N)[C@H]3O[C@H]3O[C@H](CO)[C@@H](O)[C@H](O)[C@H]3N)O[C@@H]2CO)[C@H](N)[C@@H](O)[C@@H]1O` [paromomycin], in the experiment with 30S ribosomal subunit, the “reduction of the rate of 30S formation compared with control cells” value is recorded as “about 80%”. In addition, the “IC50, viable cell number” value in the experiment on cells was 2 µg/mL (≈ 3.25 µM).
Take `COc1ccc(C[C@H](N)C(=O)N[C@H]2[C@@H](O)[C@H](n3cnc4c(N(C)C)ncnc43)O[C@@H]2CO)cc1` [puromycin]: the “Insulin expression (normalized to β-actin)” value in the experiment with HD487B cells (HD487B P1, 2.5 μg/mL @ P0) stood at 3.96E−01; with HD487B cells (HD487B P1, 5 μg/mL @ P0), 8.48E−02; with HD487B cells (HD487B P2, 2.5 μg/mL @ P0) it was 1.39E−02; with HD487B cells (HD487B P2, 5 μg/mL @ P0), 2.51E−02; with HD487B cells (HD487B P3, 2.5 μg/mL @ P0), 9.89E−03; with HD487B cells (HD487B P3, 5 μg/mL @ P0), 2.63E−02. Also, the “Insulin expression (normalized to β-actin)” value in the experiment with HD487B cells (HD487B P4, 2.5 μg/mL @ P0) worked out at 3.46E−03; with HD487B cells (HD487B P5, 2.5 μg/mL @ P0), 1.83E−03.
On to `[H]/N=C(/N)N[C@H]1[C@H](O)[C@@H](O)[C@H](O[C@@H]2O[C@@H](C)[C@](O)(C=O)[C@H]2O[C@@H]2O[C@@H](CO)[C@H](O)[C@@H](O)[C@@H]2NC)[C@@H](N/C(N)=N\[H])[C@@H]1O` [Streptomycin, streptomycin], for which, in the experiment on RbbA, the “RbbA released, relative to the amount hygromycin B releases” value was “about 25%”. In addition, the “inhibition of the ATPase activity of ribosomes compared to that of hygromycin B” value in experiment [1] is given as “about 20%”.
